Experimental data from patent US20240376085A1 (Janssen Pharmaceutica NV, priority 2021, published 2024).
pIC50: −log10 of the molar value.

Key:
[1] = test system: IL-17A-induced G-CSF production in human normal keratinocyte (NHK); experiment: NHK assay: IL-17A-induced G-CSF production in normal human keratinocytes; format: cell-based; settings: Homo sapiens, Keratinocyte, 24 h, IL-17A 5 ng/mL, average if tested more than once
Outline: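 IC50 derives from G-CSF in supernatants, quantified by HTRF from a standard curve, with CellTiter-Glo viability compared to DMSO control. Before a 24 h, 37°C culture of normal human keratinocytes at 3000–4000 cells/well, compound dilutions were preincubated 1 h at rt with human IL-17A (5 ng/mL final), with 0.2% DMSO and 5% FBS.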

IL-17A : IL-17RA binding = molecular target: T1, IL-17A : IL-17RA binding (Homo sapiens, UniProt Q16552, K93Q); experiment: IL-17A(FLAG-tagged):IL-17RA(His-tagged) binding disruption Eu-HTRF assay, Protocol 1; settings: FLAG-IL-17A 2.5 nM at 2x final concentration; average if tested more than once
T1 construct: Name: IL-17A-Flag
Outline: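 IC50 came from a one-site competition fit of the acceptor/donor (665/620 nm) HTRF ratio. His-tagged IL-17RA, Eu-anti-FLAG and D2-anti-His were added after a 1 h rt compound preincubation with FLAG-tagged IL-17A dimer in PBS/0.01% Triton X-100, followed by 2 h at rt before reading.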

T1 sequence (Q16552 with tags, fused parts or gaps K93Q): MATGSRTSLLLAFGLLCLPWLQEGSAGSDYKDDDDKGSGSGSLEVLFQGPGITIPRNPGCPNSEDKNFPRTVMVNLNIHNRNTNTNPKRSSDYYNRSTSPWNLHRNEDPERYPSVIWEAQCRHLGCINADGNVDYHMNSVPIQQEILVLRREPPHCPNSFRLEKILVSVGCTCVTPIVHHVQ

SMILES | pIC50 [1] | pIC50 (IL-17A : IL-17RA binding)
Cc1nonc1C(=O)N[C@H](c1nc2ccc([C@H](NC(=O)CC3CC(F)(F)C3)C3CC3)cc2[nH]1)C1CCC2(CC1)CC2 (stereo partly drawn) [Example 169, N—((S)-(6-((R)-Cyclopropyl(2-(3,3-difluorocyclobutyl)acetamido)methyl)-1H-benzo[d]imidazol-2-yl)(spiro[2.5]octan-6-yl)methyl)-4-methyl-1,2,5-oxadiazole-3-carboxamide] | > 7.30 | > 7.30
O=C(CC1CC(F)(F)C1)N[C@@H](c1ccc2nc([C@@H](NC(=O)c3nonc3C3CC3)[C@H]3CCCC(F)(F)C3)[nH]c2c1)C1CC1 [Example 170, 4-Cyclopropyl-N—((S)-(6-((R)-cyclopropyl(2-(3,3-difluorocyclobutyl)acetamido)methyl)-1H-benzo[d]imidazol-2-yl)((S)-3,3-difluorocyclohexyl)methyl)-1,2,5-oxadiazole-3-carboxamide] | > 7.30 | > 7.30
O=C(CC1CC(F)(F)C1)N[C@@H](c1ccc2nc([C@@H](NC(=O)c3nonc3C3CC3)[C@@H]3CCCC(F)(F)C3)[nH]c2c1)C1CC1 [Example 171, 4-Cyclopropyl-N—((S)-(6-((R)-cyclopropyl(2-(3,3-difluorocyclobutyl)acetamido)methyl)-1H-benzo[d]imidazol-2-yl)((R)-3,3-difluorocyclohexyl)methyl)-1,2,5-oxadiazole-3-carboxamide] | > 7.30 | 7.00 to 7.30
CC(C)n1nccc1C(=O)N[C@@H](CC(C)(C)C(F)(F)F)c1nc2ccc([C@H](NC(=O)CC3CC(F)(F)C3)C3CC3)cc2[nH]1 [Example 177, N—((S)-1-(6-((R)-Cyclopropyl(2-(3,3-difluorocyclobutyl)acetamido)methyl)-1H-benzo[d]imidazol-2-yl)-4,4,4-trifluoro-3,3-dimethylbutyl)-1-isopropyl-1H-pyrazole-5-carboxamide] | > 7.30 | < 7.00
CC(C)(C[C@H](NC(=O)c1nonc1C1CC1)c1nc2ccc([C@H](NC(=O)CC3CC(F)(F)C3)C3CC3)cc2[nH]1)C(F)(F)F [Example 178, 4-Cyclopropyl-N—((S)-1-(6-((R)-cyclopropyl(2-(3,3-difluorocyclobutyl)acetamido)methyl)-1H-benzo[d]imidazol-2-yl)-4,4,4-trifluoro-3,3-dimethylbutyl)-1,2,5-oxadiazole-3-carboxamide] | > 7.30 | > 7.30
CC(C)(C[C@H](NC(=O)c1nonc1C1CC1)c1nc2ccc([C@H](NC(=O)CCC(F)F)C3CC3)cc2[nH]1)C(F)(F)F [Example 185, 4-Cyclopropyl-N—((S)-1-(6-((R)-cyclopropyl(4,4-difluorobutanamido)methyl)-1H-benzo[d]imidazol-2-yl)-4,4,4-trifluoro-3,3-dimethylbutyl)-1,2,5-oxadiazole-3-carboxamide] | < 7.00 | > 7.30
Cc1nonc1C(=O)N[C@@H](CC(C)(C)C(F)(F)F)c1nc2ccc([C@H](NC(=O)CC3CC(F)(F)C3)C3CC3)cc2[nH]1 [Example 186, N—((S)-1-(6-((R)-Cyclopropyl(2-(3,3-difluorocyclobutyl)acetamido)methyl)-1H-benzo[d]imidazol-2-yl)-4,4,4-trifluoro-3,3-dimethylbutyl)-4-methyl-1,2,5-oxadiazole-3-carboxamide] | 7.00 to 7.30 | > 7.30
CC(C)c1nnsc1C(=O)N[C@H](c1nc2cc([C@@H](C)NC(=O)CCC(F)(F)F)ccc2[nH]1)C1CCC(F)(F)CC1 [Example 188, N—((S)-(4,4-Difluorocyclohexyl)(5-((R)-1-(4,4,4-trifluorobutanamido)ethyl)-1H-benzo[d]imidazol-2-yl)methyl)-4-isopropyl-1,2,3-thiadiazole-5-carboxamide] | < 7.00 | < 7.00
CC(C)n1ncnc1C(=O)N[C@H](c1nc2cc([C@@H](C)NC(=O)CCC(F)(F)F)ccc2[nH]1)C1CCC(F)(F)CC1 [Example 199, N—((S)-(4,4-Difluorocyclohexyl)(5-((R)-1-(4,4,4-trifluorobutanamido)ethyl)-1H-benzo[d]imidazol-2-yl)methyl)-1-isopropyl-1H-1,2,4-triazole-5-carboxamide] | < 7.00 | < 7.00
CC(C)c1scnc1C(=O)N[C@H](c1nc2cc([C@@H](C)NC(=O)CCC(F)(F)F)ccc2[nH]1)C1CCC(F)(F)CC1 [Example 200, N—((S)-(4,4-Difluorocyclohexyl)(5-((R)-1-(4,4,4-trifluorobutanamido)ethyl)-1H-benzo[d]imidazol-2-yl)methyl)-5-isopropylthiazole-4-carboxamide] | 7.00 to 7.30 | 7.00 to 7.30
C[C@@H](NC(=O)CCC(F)(F)F)c1ccc2[nH]c([C@@H](NC(=O)c3nc(CCC(F)(F)F)cs3)C3CCC(F)(F)CC3)nc2c1 [Example 201, N—((S)-(4,4-Difluorocyclohexyl)(5-((R)-1-(4,4,4-trifluorobutanamido)ethyl)-1H-benzo[d]imidazol-2-yl)methyl)-4-(3,3,3-trifluoropropyl) thiazole-2-carboxamide] | < 7.00 | < 7.00
CC(C)c1oncc1C(=O)N[C@H](c1nc2cc([C@@H](C)NC(=O)CCC(F)(F)F)ccc2[nH]1)C1CCC(F)(F)CC1 [Example 202, N—((S)-(4,4-Difluorocyclohexyl)(5-((R)-1-(4,4,4-trifluorobutanamido)ethyl)-1H-benzo[d]imidazol-2-yl)methyl)-5-isopropylisoxazole-4-carboxamide] | > 7.30 | > 7.30
CC(C)c1ncsc1C(=O)N[C@H](c1nc2cc([C@@H](C)NC(=O)CCC(F)(F)F)ccc2[nH]1)C1CCC(F)(F)CC1 [Example 203, N—((S)-(4,4-Difluorocyclohexyl)(5-((R)-1-(4,4,4-trifluorobutanamido)ethyl)-1H-benzo[d]imidazol-2-yl)methyl)-4-isopropylthiazole-5-carboxamide] | < 7.00 | < 7.00
CC(C)c1nocc1C(=O)N[C@H](c1nc2cc([C@@H](C)NC(=O)CCC(F)(F)F)ccc2[nH]1)C1CCC(F)(F)CC1 [Example 204, N—((S)-(4,4-Difluorocyclohexyl)(5-((R)-1-(4,4,4-trifluorobutanamido)ethyl)-1H-benzo[d]imidazol-2-yl)methyl)-3-isopropylisoxazole-4-carboxamide] | > 7.30 | > 7.30
CC(C)c1ccsc1C(=O)N[C@H](c1nc2cc([C@@H](C)NC(=O)CCC(F)(F)F)ccc2[nH]1)C1CCC(F)(F)CC1 [Example 205, N—((S)-(4,4-Difluorocyclohexyl)(5-((R)-1-(4,4,4-trifluorobutanamido)ethyl)-1H-benzo[d]imidazol-2-yl)methyl)-3-isopropylthiophene-2-carboxamide] | 7.00 to 7.30 | > 7.30
CC(C)c1snnc1C(=O)N[C@H](c1nc2cc([C@@H](C)NC(=O)CCC(F)(F)F)ccc2[nH]1)C1CCC(F)(F)CC1 [Example 206, N—((S)-(4,4-Difluorocyclohexyl)(5-((R)-1-(4,4,4-trifluorobutanamido)ethyl)-1H-benzo[d]imidazol-2-yl)methyl)-5-isopropyl-1,2,3-thiadiazole-4-carboxamide] | > 7.30 | 7.00 to 7.30
CC(C)c1ocnc1C(=O)N[C@H](c1nc2cc([C@@H](C)NC(=O)CCC(F)(F)F)ccc2[nH]1)C1CCC(F)(F)CC1 [Example 207, N—((S)-(4,4-Difluorocyclohexyl)(5-((R)-1-(4,4,4-trifluorobutanamido)ethyl)-1H-benzo[d]imidazol-2-yl)methyl)-5-isopropyloxazole-4-carboxamide] | < 7.00 | 7.00 to 7.30
CC(C)n1cncc1C(=O)N[C@H](c1nc2cc([C@@H](C)NC(=O)CCC(F)(F)F)ccc2[nH]1)C1CCC(F)(F)CC1 [Example 208, N—((S)-(4,4-Difluorocyclohexyl)(5-((R)-1-(4,4,4-trifluorobutanamido)ethyl)-1H-benzo[d]imidazol-2-yl)methyl)-1-isopropyl-1H-imidazole-5-carboxamide] | < 7.00 | < 7.00
C[C@@H](NC(=O)CCC(F)(F)F)c1ccc2[nH]c([C@@H](NC(=O)c3conc3C3CC3)C3CCC(F)(F)CC3)nc2c1 [Example 209, 3-Cyclopropyl-N—((S)-(4,4-difluorocyclohexyl)(5-((R)-1-(4,4,4-trifluorobutanamido)ethyl)-1H-benzo[d]imidazol-2-yl)methyl)isoxazole-4-carboxamide] | > 7.30 | 7.00 to 7.30
C[C@@H](NC(=O)CCC(F)(F)F)c1ccc2[nH]c([C@@H](NC(=O)c3ccn4c3CCC4)C3CCC(F)(F)CC3)nc2c1 [Example 210, N—((S)-(4,4-Difluorocyclohexyl)(5-((R)-1-(4,4,4-trifluorobutanamido)ethyl)-1H-benzo[d]imidazol-2-yl)methyl)-2,3-dihydro-1H-pyrrolizine-7-carboxamide] | < 7.00 | < 7.00
C[C@@H](NC(=O)CCC(F)(F)F)c1ccc2[nH]c([C@@H](NC(=O)c3cnc4n3CCC4)C3CCC(F)(F)CC3)nc2c1 [Example 211, N—((S)-(4,4-Difluorocyclohexyl)(5-((R)-1-(4,4,4-trifluorobutanamido)ethyl)-1H-benzo[d]imidazol-2-yl)methyl)-6,7-dihydro-5H-pyrrolo[1,2-a]imidazole-3-carboxamide] | < 7.00 | < 7.00
